Experiment in all cases: AK assay 384-well format, Prestwick library screening
The subject of one test is E. cloacae. The test is classed as cell-based, Enterobacter cloacae. The following applies: for fold induction at 50 µM: Enterobacter cloacae, 3 h.
Another test deals with E. coli. The test is classed as cell-based, Escherichia coli. The note with it: 50 μM final drug concentration; for fold induction at 50 µM: Escherichia coli, 3 h.
A further test has as its system K. pneumoniae. It counts as cell-based, Klebsiella pneumoniae. The following applies: for fold induction at 50 µM: Klebsiella pneumoniae, 3 h.
Another test concerns E. faecium. It counts as cell-based, Enterococcus faecium. The note with it: for fold induction at 50 µM: Enterococcus faecium, 3 h.
The test system of test [1] is A. baumannii strain 98-37-09. The test is classed as cell-based, Acinetobacter baumannii. The following applies: for fold induction at 50 µM: Acinetobacter baumannii, 983709, 3 h.
The subject of test [2] is S. aureus strain USA300-0114. It counts as cell-based, Staphylococcus aureus. The following applies: for fold induction at 50 µM: Staphylococcus aureus, USA300, 3 h.
In the next test the test system is P. aeruginosa. It counts as cell-based, Pseudomonas aeruginosa. The note with it: for fold induction at 50 µM: Pseudomonas aeruginosa, 3 h.
The mark [3] stands for this setting: 50 μM final drug concentration, 384-well format, cutoff for positive-scoring molecules 3-fold increase, read-out: AK-based Prestwick Library Screening Results, E. cloacae (increase in extracellular AK activity).
Where [4] appears, read: 384-well format, cutoff for positive-scoring molecules 3-fold increase, read-out: AK-based Prestwick Library Screening Results, E. coli (increase in extracellular AK activity).
[5] abbreviates: 50 μM final drug concentration, 384-well format, cutoff for positive-scoring molecules 3-fold increase, read-out: AK-based Prestwick Library Screening Results, K. pneumoniae (increase in extracellular AK activity).
The mark [6] stands for this setting: 50 μM final drug concentration, 384-well format, cutoff for positive-scoring molecules 3-fold increase, read-out: AK-based Prestwick Library Screening Results, E. faecium (increase in extracellular AK activity).
[7] abbreviates: 50 μM final drug concentration, 384-well format, cutoff for positive-scoring molecules 3-fold increase, read-out: AK-based Prestwick Library Screening Results, A. baumannii (increase in extracellular AK activity).
Where [8] appears, read: 50 μM final drug concentration, 384-well format, cutoff for positive-scoring molecules 3-fold increase, read-out: AK-based Prestwick Library Screening Results, S. aureus (increase in extracellular AK activity).
[9] abbreviates: 50 μM final drug concentration, 384-well format, cutoff for positive-scoring molecules 3-fold increase, read-out: AK-based Prestwick Library Screening Results, P. aeruginosa (increase in extracellular AK activity).
[10] abbreviates: 50 μM final drug concentration, planktonic, cutoff for positive 3-fold increase.
Setting [11] is: planktonic E. cloacae, 50 μM final drug concentration, 384-well, cutoff for positive-scoring molecules 3-fold increase, read-out: AK-based Prestwick Library Screening Results: E. cloacae (increase in extracellular AK activity).
The mark [12] stands for this setting: planktonic E. coli, 384-well, cutoff for positive-scoring molecules 3-fold increase, read-out: AK-based Prestwick Library Screening Results: E. coli (increase in extracellular AK activity).
Setting [13] is: planktonic K. pneumoniae, 50 μM final drug concentration, 384-well, cutoff for positive-scoring molecules 3-fold increase, read-out: AK-based Prestwick Library Screening Results: K. pneumoniae (increase in extracellular AK activity).
The mark [14] stands for this setting: planktonic E. faecium, 50 μM final drug concentration, 384-well, cutoff for positive-scoring molecules 3-fold increase, read-out: AK-based Prestwick Library Screening Results: E. faecium (increase in extracellular AK activity).
Where [15] appears, read: planktonic A. baumannii, 50 μM final drug concentration, 384-well, cutoff for positive-scoring molecules 3-fold increase, read-out: AK-based Prestwick Library Screening Results: A. baumannii (increase in extracellular AK activity).
The mark [16] stands for this setting: planktonic S. aureus, 50 μM final drug concentration, 384-well, cutoff for positive-scoring molecules 3-fold increase, read-out: AK-based Prestwick Library Screening Results: S. aureus (increase in extracellular AK activity).
[17] abbreviates: planktonic P. aeruginosa, 50 μM final drug concentration, 384-well, cutoff for positive-scoring molecules 3-fold increase, read-out: AK-based Prestwick Library Screening Results: P. aeruginosa (increase in extracellular AK activity).

Counter-ions that a name gives are not always drawn. Like-named read-outs stand apart in the source and are kept apart here.

Regarding `CNC(C)CCC=C(C)C.CNC(C)CCC=C(C)C.O=C(O)[C@@H](O)[C@H](O)[C@H](O)[C@@H](O)C(=O)O` [Isometheptene mutate], the “AK-based Prestwick library screening result, E. cloacae (fold increase in extracellular AK activity)” value with E. cloacae stood at 1.2. Moreover, the “AK-based Prestwick library screening result, E. coli (fold increase in extracellular AK activity)” value in the test on E. coli (planktonic E. coli, […]) came out at 1.2. Also, the “AK-based Prestwick library screening result, K. pneumoniae (fold increase in extracellular AK activity)” value in the test with K. pneumoniae turned out to be 1.1. The “AK-based Prestwick library screening result, E. faecium (fold increase in extracellular AK activity)” value with E. faecium is on record as 1.0. Moreover, the “AK-based Prestwick library screening result, A. baumannii (fold increase in extracellular AK activity)” value in test [1] came to 1.5. The “AK-based Prestwick library screening result, S. aureus (fold increase in extracellular AK activity)” value in test [2] turned out to be 1.2. Moreover, the “AK-based Prestwick library screening result, P. aeruginosa (fold increase in extracellular AK activity)” value with P. aeruginosa is recorded as 1.1.

With `NNC(=O)c1ccncc1` [Isoniazid], the fold induction at 50 µM turned out to be 0.6 with E. cloacae (setting [3]); 0.6 with E. coli (setting [4]); 0.6 in the test on K. pneumoniae (setting [5]); 1 with E. faecium (setting [6]); 0.6 in test [1] (setting [7]); 0.7 in test [2] (setting [8]). Besides, in the test with P. aeruginosa (setting [9]), the fold induction at 50 µM is 0.6.

For the molecule `CC(C)[N+](C)(CCC(C(N)=O)(c1ccccc1)c1ccccc1)C(C)C` [Isopropamide iodide], the fold induction at 50 µM with E. cloacae (50 μM final drug concentration, cutoff for positive-scoring molecules 3-fold increase, read-out: AK-based Prestwick Library Screening Results, E. cloacae (fold increase in extracellular AK activity)) came to 1.5; with E. coli (cutoff for positive-scoring molecules 3-fold increase, read-out: AK-based Prestwick Library Screening Results, E. coli (fold increase in extracellular AK activity)), 1.3; with K. pneumoniae (50 μM final drug concentration, cutoff for positive-scoring molecules 3-fold increase, read-out: AK-based Prestwick Library Screening Results, K. pneumoniae (fold increase in extracellular AK activity)), 1.1; in the test on E. faecium (50 μM final drug concentration, cutoff for positive-scoring molecules 3-fold increase, read-out: AK-based Prestwick Library Screening Results, E. faecium (fold increase in extracellular AK activity)), 1.1; in test [1] (50 μM final drug concentration, cutoff for positive-scoring molecules 3-fold increase, read-out: AK-based Prestwick Library Screening Results, A. baumannii (fold increase in extracellular AK activity)) it was 1; in test [2] (50 μM final drug concentration, cutoff for positive-scoring molecules 3-fold increase, read-out: AK-based Prestwick Library Screening Results, S. aureus (fold increase in extracellular AK activity)), 1.2. Further, the fold induction at 50 µM with P. aeruginosa (50 μM final drug concentration, cutoff for positive-scoring molecules 3-fold increase, read-out: AK-based Prestwick Library Screening Results, P. aeruginosa (fold increase in extracellular AK activity)) worked out at 1.2.

Regarding `Cc1c(NC(C)C)c(=O)n(-c2ccccc2)n1C.Cl` [Isopyrin hydrochloride], in the test with E. cloacae (setting [10]), the “AK-based Prestwick Library Screening Results, E. cloacae (fold increase in extracellular AK activity)” value came out at 0.3. Also, the “AK-based Prestwick Library Screening Results, E. coli (fold increase in extracellular AK activity)” value in the test on E. coli (planktonic, cutoff for positive 3-fold increase) is reported as 0.4. Moreover, the “AK-based Prestwick Library Screening Results, K. pneumoniae (fold increase in extracellular AK activity)” value in the test with K. pneumoniae (setting [10]) was found to be 0.4. Moreover, in the test with E. faecium (setting [10]), the “AK-based Prestwick Library Screening Results, E. faecium (fold increase in extracellular AK activity)” value worked out at 0.8. Moreover, the “AK-based Prestwick Library Screening Results, A. baumannii (fold increase in extracellular AK activity)” value in test [1] (setting [10]) turned out to be 0.3. Besides, the “AK-based Prestwick Library Screening Results, S. aureus (fold increase in extracellular AK activity)” value in test [2] (setting [10]) is recorded as 0.4. Moreover, in the test with P. aeruginosa (setting [10]), the “AK-based Prestwick Library Screening Results, P. aeruginosa (fold increase in extracellular AK activity)” value turned out to be 0.4.

Regarding `CC1=C(/C=C/C(C)=C/C=C/C(C)=C\C(=O)O)C(C)(C)CCC1` [Isotretinoin], the fold induction at 50 µM worked out at 0.9 with E. cloacae (setting [3]); 0.7 in the test with E. coli (setting [4]); 0.6 in the test with K. pneumoniae (setting [5]); 1 with E. faecium (setting [6]); 0.7 in test [1] (setting [7]); 0.6 in test [2] (setting [8]). In the test with P. aeruginosa (setting [9]), the fold induction at 50 µM turned out to be 0.8.

Take `Cc1cc(NC(=O)C2=C(O)c3ccccc3S(=O)(=O)N2C)no1` [Isoxicam]: the fold induction at 50 µM amounted to 1.4 in the test on E. cloacae (setting [3]); 1.2 in the test with E. coli (setting [4]); 1 in the test with K. pneumoniae (setting [5]); 1 with E. faecium (setting [6]); 1 in test [1] (setting [7]); 1 in test [2] (setting [8]). Further, the fold induction at 50 µM with P. aeruginosa (setting [9]) is 1.

Turning to `CC(COc1ccccc1)NC(C)C(O)c1ccc(O)cc1` (stereo not shown) [Isoxsuprine hydrochloride], the fold induction at 50 µM in the test on E. cloacae (setting [11]) worked out at 1.5; in the test with E. coli (setting [12]), 1.1; with K. pneumoniae (setting [13]), 1; in the test on E. faecium (setting [14]), 1; in test [1] (setting [15]), 1.5; in test [2] (setting [16]), 1.1. Also, in the test with P. aeruginosa (setting [17]), the fold induction at 50 µM was 1.1.

Take `COC(=O)C1=C(C)NC(C)=C(C(=O)OC(C)C)C1c1cccc2nonc12` (stereo not shown) [Isradipine]: the fold induction at 50 µM in the test with E. cloacae (planktonic E. cloacae, 50 μM final drug concentration, positive cutoff 3-fold increase, read-out: AK-based Prestwick library screening result, E. cloacae (fold increase in extracellular AK activity)) stood at 1.4; in the test with E. coli (planktonic E. coli, positive cutoff 3-fold increase, read-out: AK-based Prestwick library screening result, E. coli (fold increase in extracellular AK activity)), 1.1; in the test on K. pneumoniae (planktonic K. pneumoniae, 50 μM final drug concentration, positive cutoff 3-fold increase, read-out: AK-based Prestwick library screening result, K. pneumoniae (fold increase in extracellular AK activity)), 1.1; in the test on E. faecium (planktonic E. faecium, 50 μM final drug concentration, positive cutoff 3-fold increase, read-out: AK-based Prestwick library screening result, E. faecium (fold increase in extracellular AK activity)) it was 1.1; in test [1] (planktonic A. baumannii, 50 μM final drug concentration, positive cutoff 3-fold increase, read-out: AK-based Prestwick library screening result, A. baumannii (fold increase in extracellular AK activity)), 1.2; in test [2] (planktonic S. aureus, 50 μM final drug concentration, positive cutoff 3-fold increase, read-out: AK-based Prestwick library screening result, S. aureus (fold increase in extracellular AK activity)), 0.7. Besides, in the test with P. aeruginosa (planktonic P. aeruginosa, 50 μM final drug concentration, positive cutoff 3-fold increase, read-out: AK-based Prestwick library screening result, P. aeruginosa (fold increase in extracellular AK activity)), the fold induction at 50 µM is 1.1.

`CC[C@H](C)[C@H]1O[C@]2(CC[C@@H]1C)C[C@@H]1C[C@@H](C/C=C(\C)[C@@H](O[C@H]3C[C@H](OC)[C@@H](O[C@H]4C[C@H](OC)[C@@H](O)[C@H](C)O4)[C@H](C)O3)[C@@H](C)/C=C/C=C3\CO[C@@H]4[C@H](O)C(C)=C[C@@H](C(=O)O1)[C@]34O)O2` [Ivermectin]: the “AK-based Prestwick Library Screening Results: E. cloacae (increase in extracellular AK activity)” value with E. cloacae (planktonic E. cloacae, 50 μM final drug concentration, 384-well, […]) is given as 1.6. The “AK-based Prestwick Library Screening Results: E. coli (increase in extracellular AK activity)” value in the test with E. coli (planktonic E. coli, 384-well, […]) is listed as 1.3. For the same molecule, the “AK-based Prestwick Library Screening Results: K. pneumoniae (increase in extracellular AK activity)” value in the test with K. pneumoniae (planktonic K. pneumoniae, 50 μM final drug concentration, 384-well, […]) is recorded as 1.0. The “AK-based Prestwick Library Screening Results: E. faecium (increase in extracellular AK activity)” value with E. faecium (planktonic E. faecium, 50 μM final drug concentration, 384-well, […]) is 1.2. Further, the “AK-based Prestwick Library Screening Results: A. baumannii (increase in extracellular AK activity)” value in test [1] (planktonic A. baumannii, 50 μM final drug concentration, 384-well, […]) was determined as 1.5. Besides, in test [2] (planktonic S. aureus, 50 μM final drug concentration, 384-well, […]), the “AK-based Prestwick Library Screening Results: S. aureus (increase in extracellular AK activity)” value was determined as 2.1. Besides, the “AK-based Prestwick Library Screening Results: P. aeruginosa (increase in extracellular AK activity)” value with P. aeruginosa (planktonic P. aeruginosa, 50 μM final drug concentration, 384-well, […]) is reported as 1.0.

Turning to `CO[C@@H]1[C@@H](O[C@@H]2O[C@H](C)[C@@H](O[C@H]3C[C@@](C)(O)[C@@H](OC(=O)CC(C)C)[C@H](C)O3)[C@H](N(C)C)[C@H]2O)[C@@H](CC=O)C[C@@H](C)[C@@H](O)/C=C/C=C/C[C@@H](C)OC(=O)C[C@H]1OC(C)=O` [Josamycin], the fold induction at 50 µM in the test on E. cloacae (setting [11]) came out at 1.4; in the test with E. coli (setting [12]) it was 1.3; with K. pneumoniae (setting [13]) it was 1; in the test on E. faecium (setting [14]), 1; in test [1] (setting [15]) it was 1.1; in test [2] (setting [16]), 8.4. The fold induction at 50 µM in the test on P. aeruginosa (setting [17]) was 0.9.

The record behind these values is patent US10004701B2, “Methods and compositions for treating infection” (UNIVERSITY OF ROCHESTER, priority 2012, dated 2018).
